Measurements from patent publication US20240226228A1, “ANTIMICROBIAL PEPTOID HAVING IMPROVED SELECTIVITY AND ANTIMICROBIAL COMPOSITION COMPRISING SAME” (priority 2021, published 2024).
Values after ≈ are worked out from the molar mass of the structure shown. Where two headings read alike, the source gives them in different places. *1 amine or outer side, *2 acyl side, *3 side chain or, on linkers, in order; H or OH if unused. Where a SMILES comes first, the peptide text is derived from it. Where no end group is shown, it is not given here. [ ]: non-standard residue; d: D form. Gly(N(CH2)2(3-indolyl)) = O=C(O)CNCCc1c[nH]c2ccccc12; Gly(N-CH2CH2-imidazol-4-yl) = O=C(O)CNCCc1c[nH]cn1; Nspe = C[C@H](NCC(=O)O)c1ccccc1; X1 = O=C(CN(CCCCO)[*:1])[*:2]; Nlys = NCCCCNCC(=O)O

What was measured:
S. aureus ATCC 25923 = tested on: S. aureus ATCC 25923
Description: (§1) To measure the antimicrobial activity of the peptoids synthesized in Example 1, an E. coli ATCC25922 strain as gram-negative bacteria and an S. aureus KCTC25923 strain as gram-positive bacteris, were treated with the peptoids, followed by measuring the minimum inhibitory concentration (MIC). Peptoids 1 and 2 are antimicrobial peptoids known in the art, and used as controls for comparing antimicrobial activity with a novel peptoid.
(§2) Specifically, the S. aureus KCTC25923 or E. coli ATCC25922 strain was inoculated into a Mueller Hinton Broth (MHB2) liquid medium in which cations had been adjusted in the medium, cultured at 37° C. for 18 hours, subcultured, and then incubated for 4 hours. Afterward, for each bacterial strain, an optical density (OD, 0.001) was adjusted so that the bacterial count became 2×10^5 to 5×10^5 colony-forming units (CFU) per mL, which was then diluted with a MHB2 liquid medium containing 0.02% bovine serum albumin and 0.001% acetic acid, and dispensed at 100 μL into a 96-well microplate. Using sterile water, a peptoid stock 40 times stronger than a concentration to be tested was subjected to two-fold serial dilution and assessed at six different concentrations, and the maximum value of the peptoid concentrations was 25 μM. Subsequently, the plate was incubated at 37° C. for 24 hours. Afterward, optical density (OD) values at 600 nm were measured using a microplate reader (Bio-Rad).
(§3) Each MIC value was determined as the average value of a value obtained through three independent experiments.
(§4) Referring to Table 22, to measure the antimicrobial activity of the peptoids synthesized in Example 3, an MIC was measured by treating gram-negative bacteria, that is, the E. coli ATCC25922 strain, and gram-positive bacteria, that is, the S. aureus ATCC25923 strain, with the peptoids. Here, Peptoid 1 is a conventionally known antimicrobial peptoid, and Omiganan is a derivative of indolicidin, which is an antimicrobial peptide, under clinical development, and was used as a control for comparing antimicrobial activity with the novel peptoid.

red blood cells = test: Hemolysis assay; assay type: cell-based, Sprague-Dawley mouse
Description: To confirm cytotoxicity by the hemolytic activity of each peptoid synthesized in Example 1, hemolysis analysis was performed. The used blood was collected from a 13-week-old male Sprague-Dawley […] in a tube containing 158 UPS sodium heparin for preventing coagulation, and centrifuged at 4° C. for 10 minutes at 1,000 rpm. Afterward, the plasma was carefully removed, red blood cells were washed with phosphate-buffered saline (PBS: a mixed solution of 35 mM phosphate-buffered solution/150 mM NaCl, pH 7.4) three times and centrifuged at 1,000 rpm for 10 minutes. A 10% (v/v) red blood cell solution diluted in PBS was dispensed at 150 μL into a 96-well plate (microtiter plate), a peptoid solution was added at 50 μL, and 1% Triton X-100 was added. Afterward, the red blood cells were incubated at 37° C. for 1 hour, and the incubated 96-well plate was centrifuged at 1,000 rpm for 15 minutes. A supernatant was obtained and transferred to a new 96-well plate at 150 μL, and absorbance was measured using a spectrophotometer at 540 nm. Percent hemolysis may be calculated by the following Equation 1, and the corresponding results are shown in Tables 11 to 13. % Hemolysis=(A−C)/(B−C)×100 [Equation 1] In Equation 1, A is the absorbance of the peptoid solution at 540 nm, B is the absorbance of the 0.1% Triton X-100 at 540 nm, and C is the absorbance of the PBS solution at 540 nm.

E. coli ATCC25922 = conditions: for antimicrobial activity (in words): E. coli and S. aureus, compared to Peptoid 1, parent peptoid or TFA salt as stated
Description: as §1, §2, §3, §4

[1] = Tables 11-13, 24 hours at 37° C., maximum concentration 25 μM

Row | Molecule | MIC S. aureus ATCC 25923 (S. aureus ATCC 25923; [1]) | antimicrobial activity (in words) (E. coli ATCC25922) | cytotoxicity against red blood cells / hemolysis (in words) (red blood cells) | other results
1 | C[C@@H](c1ccccc1)N(CC(N)=O)C(=O)CN(CCCCN)C(=O)CN(C(=O)CN(C(=O)CN(CCCCN)C(=O)CN(C(=O)CN(C(=O)CN(CCCCN)C(=O)CN(C(=O)CN(CCCCN)C(=O)CNCCCCN)[C@@H](C)c1ccccc1)[C@@H](C)c1ccccc1)[C@@H](C)c1ccccc1)[C@@H](C)c1ccccc1)[C@@H](C)c1ccccc1 [Peptoid 49] | >25 µM |  |  | HC10 (red blood cells): >100/>100 μM; HC50 (red blood cells): >100/>100 μM; Hmax (100 μM) (red blood cells): 0.3 ± 0.3%
2 | C[C@@H](c1ccccc1)N(CC(=O)N(CCCCN)CC(=O)N(CC(=O)N(CC(=O)N(CCCCN)CC(=O)N(CC(=O)N(CC(=O)N(CCCCN)CC(=O)N(CCCCN)CC(N)=O)[C@@H](C)c1ccccc1)[C@@H](C)c1ccccc1)[C@@H](C)c1ccccc1)[C@@H](C)c1ccccc1)C(=O)CN(C(=O)CNCCCCN)[C@@H](C)c1ccccc1 [Peptoid 52] (H-[Nlys][Nspe][Nspe][Nlys][Nspe][Nspe][Nlys][Nspe][Nspe][Nlys][Nlys]-NH2) | >25 µM |  |  | 
3 | NC(=O)CN(CCc1c[nH]c2ccccc12)C(=O)CN(CCc1c[nH]c2ccccc12)C(=O)CN(CCCCO)C(=O)CN(CCc1c[nH]c2ccccc12)C(=O)CN(CCc1c[nH]c2ccccc12)C(=O)CN(CCCCO)C(=O)CN(CCc1c[nH]c2ccccc12)C(=O)CN(CCc1c[nH]c2ccccc12)C(=O)CN(CCCCO)C(=O)CN(CCc1c[nH]c2ccccc12)C(=O)CN(CCc1c[nH]c2ccccc12)C(=O)CNCCCCO [Peptoid 65] (H-[X1][Gly(N(CH2)2(3-indolyl))][Gly(N(CH2)2(3-indolyl))][X1][Gly(N(CH2)2(3-indolyl))][Gly(N(CH2)2(3-indolyl))][X1][Gly(N(CH2)2(3-indolyl))][Gly(N(CH2)2(3-indolyl))][X1][Gly(N(CH2)2(3-indolyl))][Gly(N(CH2)2(3-indolyl))]-NH2) | >25 µM |  |  | MIC E. coli ATCC25922 (E. coli ATCC25922; [1]): >25 µM
4 | C[C@@H](c1ccccc1)N(CC(=O)N(CCCCO)CC(=O)N(CCc1c[nH]c2ccccc12)CC(=O)N(CCc1c[nH]c2ccccc12)CC(N)=O)C(=O)CN(CCCCO)C(=O)CN(CCCCO)C(=O)CN(C(=O)CN(C(=O)CN(CCCCO)C(=O)CN(C(=O)CN(C(=O)CNCCCCO)[C@@H](C)c1ccccc1)[C@@H](C)c1ccccc1)[C@@H](C)c1ccccc1)[C@@H](C)c1ccccc1 [Peptoid 66] | >25 µM |  |  | MIC E. coli ATCC25922 (E. coli ATCC25922; [1]): >25 µM
5 | C[C@@H](c1ccccc1)N(CC(N)=O)C(=O)CN(CCCCN)C(=O)CN(CCCCN)C(=O)CN(C(=O)CN(C(=O)CN(CCCCN)C(=O)CN(C(=O)CN(CCc1c[nH]cn1)C(=O)CN(CCCCN)C(=O)CN(CCc1c[nH]c2ccccc12)C(=O)CN(CCc1c[nH]c2ccccc12)C(=O)CNCCCCN)[C@@H](C)c1ccccc1)[C@@H](C)c1ccccc1)[C@@H](C)c1ccccc1 [Peptoid 67] (H-[Nlys][Gly(N(CH2)2(3-indolyl))][Gly(N(CH2)2(3-indolyl))][Nlys][Gly(N-CH2CH2-imidazol-4-yl)][Nspe][Nlys][Nspe][Nspe][Nlys][Nlys][Nspe]-NH2) |  |  |  | MIC E. coli ATCC25922 (E. coli ATCC25922; ATCC25922): >25 µM; MIC S. aureus ATCC 25923 (S. aureus ATCC 25923; ATCC 25923): 25 µM (≈ 46.4 µg/mL)
6 | C[C@@H](c1ccccc1)N(CC(N)=O)C(=O)CN(CCCCN)C(=O)CN(CCCCN)C(=O)CN(C(=O)CN(C(=O)CN(CCCCN)C(=O)CN(CCc1c[nH]cn1)C(=O)CN(C(=O)CN(CCCCN)C(=O)CN(CCc1c[nH]c2ccccc12)C(=O)CN(CCc1c[nH]c2ccccc12)C(=O)CNCCCCN)[C@@H](C)c1ccccc1)[C@@H](C)c1ccccc1)[C@@H](C)c1ccccc1 [Peptoid 68] (H-[Nlys][Gly(N(CH2)2(3-indolyl))][Gly(N(CH2)2(3-indolyl))][Nlys][Nspe][Gly(N-CH2CH2-imidazol-4-yl)][Nlys][Nspe][Nspe][Nlys][Nlys][Nspe]-NH2) |  |  |  | MIC E. coli ATCC25922 (E. coli ATCC25922; ATCC25922): >25 µM; MIC S. aureus ATCC 25923 (S. aureus ATCC 25923; ATCC 25923): 25 µM (≈ 46.4 µg/mL)
7 | C[C@@H](c1ccccc1)N(CC(=O)N(CCCCN)CC(=O)N(CCc1c[nH]c2ccccc12)CC(=O)N(CCc1c[nH]c2ccccc12)CC(N)=O)C(=O)CN(CCc1c[nH]cn1)C(=O)CN(CCCCN)C(=O)CN(C(=O)CN(C(=O)CN(CCCCN)C(=O)CN(C(=O)CN(C(=O)CNCCCCN)[C@@H](C)c1ccccc1)[C@@H](C)c1ccccc1)[C@@H](C)c1ccccc1)[C@@H](C)c1ccccc1 [Peptoid 78, H-NLys-Nspe-Nspe-NLys-Nspe-Nspe-NLys-NHis-Nspe-NLys-NhTrp-NhTrp-NH2] (H-[Nlys][Nspe][Nspe][Nlys][Nspe][Nspe][Nlys][Gly(N-CH2CH2-imidazol-4-yl)][Nspe][Nlys][Gly(N(CH2)2(3-indolyl))][Gly(N(CH2)2(3-indolyl))]-NH2) |  | retained antimicrobial activity | improved in toxicity | 
8 | C[C@@H](c1ccccc1)N(CC(=O)N(CCCCN)CC(=O)N(CCc1c[nH]c2ccccc12)CC(=O)N(CCc1c[nH]c2ccccc12)CC(N)=O)C(=O)CN(CCCCN)C(=O)CN(CCc1c[nH]cn1)C(=O)CN(C(=O)CN(C(=O)CN(CCCCN)C(=O)CN(C(=O)CN(C(=O)CNCCCCN)[C@@H](C)c1ccccc1)[C@@H](C)c1ccccc1)[C@@H](C)c1ccccc1)[C@@H](C)c1ccccc1 [Peptoid 79, H-NLys-Nspe-Nspe-NLys-Nspe-Nspe-NHis-NLys-Nspe-NLys-NhTrp-NhTrp-NH2] (H-[Nlys][Nspe][Nspe][Nlys][Nspe][Nspe][Gly(N-CH2CH2-imidazol-4-yl)][Nlys][Nspe][Nlys][Gly(N(CH2)2(3-indolyl))][Gly(N(CH2)2(3-indolyl))]-NH2) |  | retained antimicrobial activity | improved in toxicity | 
9 | C[C@@H](c1ccccc1)N(CC(=O)N(CCCCN)CC(=O)N(CCc1c[nH]c2ccccc12)CC(=O)N(CCc1c[nH]c2ccccc12)CC(N)=O)C(=O)CN(CCCCN)C(=O)CN(CCCCN)C(=O)CN(C(=O)CN(C(=O)CN(CCc1c[nH]cn1)C(=O)CN(C(=O)CN(C(=O)CNCCCCN)[C@@H](C)c1ccccc1)[C@@H](C)c1ccccc1)[C@@H](C)c1ccccc1)[C@@H](C)c1ccccc1 [Peptoid 80, H-NLys-Nspe-Nspe-NHis-Nspe-Nspe-NLys-NLys-Nspe-NLys-NhTrp-NhTrp-NH2] (H-[Nlys][Nspe][Nspe][Gly(N-CH2CH2-imidazol-4-yl)][Nspe][Nspe][Nlys][Nlys][Nspe][Nlys][Gly(N(CH2)2(3-indolyl))][Gly(N(CH2)2(3-indolyl))]-NH2) |  | reduced antimicrobial activity | improved toxicity | 
10 | C[C@@H](c1ccccc1)N(CC(=O)N(CCCCN)CC(=O)N(CCc1c[nH]c2ccccc12)CC(=O)N(CCc1c[nH]c2ccccc12)CC(N)=O)C(=O)CN(CCCCN)C(=O)CN(CCCCN)C(=O)CN(C(=O)CN(C(=O)CN(CCCCN)C(=O)CN(C(=O)CN(C(=O)CNCCc1c[nH]cn1)[C@@H](C)c1ccccc1)[C@@H](C)c1ccccc1)[C@@H](C)c1ccccc1)[C@@H](C)c1ccccc1 [Peptoid 81, H-NHis-Nspe-Nspe-NLys-Nspe-Nspe-NLys-NLys-Nspe-NLys-NhTrp-NhTrp-NH2] (H-[Gly(N-CH2CH2-imidazol-4-yl)][Nspe][Nspe][Nlys][Nspe][Nspe][Nlys][Nlys][Nspe][Nlys][Gly(N(CH2)2(3-indolyl))][Gly(N(CH2)2(3-indolyl))]-NH2) |  | retained antimicrobial activity | improved in toxicity | 
11 | ILRWPWWPWRRK-NH2 [Omiganan, reference compound] |  |  |  | MIC E. coli ATCC25922 (E. coli ATCC25922; ATCC25922): 12.5~25 μM; Hmax (100 μM) (red blood cells): 0
